The target in data set [1] is human adenosine A2A receptors (Homo sapiens, UniProt P29274). The data set can be described thus: Binding affinities at hA2A receptors, displacement of [3H]-CGS 21680. Particulars: human adenosine A2A receptor, [3H]-CGS 21680 displacement. The text has this:
Adenosine Receptor Binding Binding Affinities at hA2A Receptors
The compounds were examined in an assay measuring in vitro binding to human adenosine A2A receptors by determining the displacement of the adenosine A2A receptor selective radioligand [^3H]-CGS 21680 using standard techniques.

Data set [2] deals with haloperidol-induced deficits in locomotor activity in mice. Put plainly: Haloperidol-induced hypolocomotion model. Format: in vivo. Particulars: oral, dose of 30 mg/kg. The text has this:
Haloperidol-Induced Hypolocomotion Model
This approach is also considered a valid method for screening drugs with potential antiparkinsonian effects. Thus, the ability of novel adenosine antagonists to block haloperidol-induced deficits in locomotor activity in mice can be used to assess both in vivo and potential antiparkinsonian efficacy.
Female TO mice (25-30 g) obtained from Harlan, UK, are used for all experiments. Animals are housed in groups of 8 [cage size—40 (width)×40 (length)×20 (height) cm] under 12 h light/dark cycle (lights on 08:00 hr), in a temperature (20±2° C.) and humidity (55±15%) controlled environment. Animals have free access to food and water, and are allowed at least 3 days to acclimatize after delivery before experimental use.
Liquid injectable haloperidol (1 ml Serenance ampoules from Baker Norton, Harlow, Essex, each containing haloperidol BP 5 mg) are diluted to a final concentration of 0.02 mg/ml using saline. Test compounds are typically prepared as aqueous suspensions in 1% methyl cellulose. All compounds are administered orally in a volume of 10 ml/kg.
1.5 h before testing, mice are administered 0.2 mg/kg haloperidol, a dose that reduces baseline locomotor activity by at least 50%. […] Horizontal locomotor activity is determined by placing the cages within a frame containing a 4×7 array of photocells linked to a computer, which tabulates beam breaks. […]

The subject of the next data set is cataleptic responses. Particulars: cited from earlier work.
The test system of a further data set is Parkinsonian patients. The following applies: 15 Parkinsonian patients, up to 12 weeks, 150 mg/day oral; cited from earlier work.

Data on 16 compounds can be found in US7875600B2, “Pyrimidine compounds as purine receptor antagonist” (Vernalis (R&D) Limited, priority 2004, dated 2011).

Structures are written as SMILES. Some results are limits rather than exact numbers.

Chain of human adenosine A2A receptors (P29274 whole entry): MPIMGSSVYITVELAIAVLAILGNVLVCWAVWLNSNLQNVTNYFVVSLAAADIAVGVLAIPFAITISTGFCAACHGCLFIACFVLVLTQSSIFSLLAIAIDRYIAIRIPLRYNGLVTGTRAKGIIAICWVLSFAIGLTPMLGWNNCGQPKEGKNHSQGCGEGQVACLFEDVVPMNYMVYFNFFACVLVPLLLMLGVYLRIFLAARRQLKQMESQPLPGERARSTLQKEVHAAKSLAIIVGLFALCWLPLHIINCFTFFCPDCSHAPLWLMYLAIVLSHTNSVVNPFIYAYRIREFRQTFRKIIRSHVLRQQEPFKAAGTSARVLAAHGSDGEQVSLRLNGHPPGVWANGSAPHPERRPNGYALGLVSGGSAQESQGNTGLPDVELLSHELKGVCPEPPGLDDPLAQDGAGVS

The term Ki denotes the equilibrium dissociation constant of an inhibitor or competing ligand from its target. High values mean lower affinity, low ones higher affinity. The compound `Nc1nc(C(=O)NCc2ccccc2F)cc(-c2ccco2)n1` [Example 1, 2-Amino-N-(2-fluorobenzyl)-6-(2-furyl)pyrimidine-4-carboxamide] yielded a Ki in data set [1] of less than 50 nM. In data set [2], the “activity in haloperidol-induced hypolocomotion model” value is reported as “orally active”.

By melting point is commonly meant the temperature of the solid-liquid transition. On to `Nc1nc(C(=O)NCCCc2ccccc2)cc(-c2ccco2)n1` [Example 83, 2-Amino-6-(2-furyl)-N-(3-phenylpropyl)pyrimidine-4-carboxamide], for which the melting point lay within 131 to 131.1 °C. Still for that read-out and setting: the result for `CCCNC(=O)OCc1cccc(CNC(=O)c2cc(-c3ccco3)nc(N)n2)n1` [Example 85, 6-(2-Amino-6-(2-furyl)pyrimidine-4-carboxamidomethyl)pyridin-2-ylmethyl n-propylcarbamate] reads 151.6 to 155.7 °C. In the case of `Cc1cnc(CNC(=O)c2cc(-c3ccco3)nc(N)n2)cn1` [Example 88, 2-Amino-6-(2-furyl)-N-(5-methylpyrazin-2-ylmethyl)pyrimidine-4-carboxamide], the melting point fell in the range of 191.9 to 192 °C. The same measure, in the same setting: in the case of `Nc1nc(C(=O)NC2Cc3ccccc3C2)cc(-c2ccco2)n1` [Example 90, 2-Amino-6-(2-furyl)-N-(2-indanyl)pyrimidine-4-carboxamide] it was 220 to 221.3 °C; in that of `Nc1nc(C(=O)NCc2ncc[nH]2)cc(-c2ccco2)n1` [Example 91, 2-Amino-6-(2-furyl)-N-(1H-imidazol-2-ylmethyl)pyrimidine-4-carboxamide], > 200 °C (dec.); in that of `CCCn1ccnc1CNC(=O)c1cc(-c2ccco2)nc(N)n1` [Example 92, 2-Amino-6-(2-furyl)-N-(1-n-propyl-1H-imidazol-2-ylmethyl)pyrimidine-4-carboxamide], 270.7 to 271.5 °C. On the same count and under the same terms, the result for `Nc1nc(C(=O)NCc2cccc(Br)n2)cc(-c2ccco2)n1` [Example 94, 2-Amino-N-(6-bromopyridin-2-ylmethyl)-6-(2-furyl)pyrimidine-4-carboxamide] reads 178.1 to 179.3 °C; that for `Nc1nc(C(=O)NCCCn2ccnc2)cc(-c2ccco2)n1` [Example 96, 2-Amino-6-(2-furyl)-N-(3-(1H-imidazol-1-yl)propyl)pyrimidine-4-carboxamide], 248.2 to 249 °C; that for `CCn1ccnc1CNC(=O)c1cc(-c2ccco2)nc(N)n1` [Example 98, 2-Amino-N-(1-ethyl-1H-imidazol-2-ylmethyl)-6-(2-furyl)pyrimidine-4-carboxamide], 263.1 to 264.9 °C. Same read-out and setting: in the case of `Cc1ccc(CNC(=O)c2cc(-c3ccco3)nc(N)n2)c(N(C)C)n1` [Example 102, 2-Amino-N-(2-dimethylamino-6-methylpyridin-3-ylmethyl)-6-(2-furyl)pyrimidine-4-carboxamide] it was 203 to 203.1 °C; in that of `CCCc1cccc(CNC(=O)c2cc(-c3nccs3)nc(N)n2)n1` [Example 109, 2-Amino-N-(6-n-propylpyridin-2-ylmethyl)-6-(thiazol-2-yl)pyrimidine-4-carboxamide], 144.1 to 144.3 °C; in that of `COCc1cccc(CNC(=O)c2nc(N)nc(-c3ccc(C)o3)c2Cl)n1` [Example 116, 2-Amino-5-chloro-N-(6-methoxymethylpyridin-2-ylmethyl)-6-(5-methyl-2-furyl)pyrimidine-4-carboxamide], 168.6 to 168.9 °C. Regarding `COCc1cccc(CNC(=O)c2nc(N)nc(-c3ccc(C)o3)c2Br)n1` [Example 117, 2-Amino-5-bromo-N-(6-methoxymethylpyridin-2-ylmethyl)-6-(5-methyl-2-furyl)pyrimidine-4-carboxamide], the melting point lay within 193.5 to 195.1 °C. As to `CCCn1c(=O)c2c(nc(/C=C/c3ccc(OC)c(OC)c3)n2C)n(CCC)c1=O` [KF 17837, (E)-8-(3,4-dimethoxystyryl)-1,3-dipropyl-7-methylxanthine], in the data set with cataleptic responses (in vivo), the “anticataleptic effects of a subthreshold dose of L-DOPA plus benserazide” value is recorded as “potentiated”; the “catalepsy induced by haloperidol and reserpine” value is on record as “reduced”. Further, the “cataleptic responses induced by intracerebroventricular CGS 21680” value in the data set on cataleptic responses (oral administration) is “significantly ameliorated”.

`Cn1c(=O)c2[nH]cnc2n(C)c1=O` [theophylline, 1,3-dimethylxanthine]: in the data set on Parkinsonian patients, the “mean objective disability scores” value is “significant improvements”.
